We go through 1 compound from patent publication US10611759B2, “Glutaminase inhibitors” (Rhizen Pharmaceuticals SA, priority 2014, dated 2020).

By GI50 is commonly meant the concentration that inhibits growth by half. The inhibition is the relative decrease from the control value, in per cent.

SMILES strings stand for the structures.

Assay [1] concerns A549. Briefly: In vitro cell proliferation assay (MTT), A549. As to conditions: Homo sapiens, 72 hours. In kind it is cell-based. Here is the method: (§1) Assay 4: In Vitro Cell Proliferation Assay in Cancer Cell Lines
(§2) Growth inhibition assays were carried out using 10% FBS supplemented media. Cells were seeded at a concentration of 5000-20,000 cells/well in a 96-well plate. Test compounds at a concentration range from 0.01 to 10000 nM were added after 24 hours. Growth was assessed using the 3-[4,5-dimethylthiazol-2-yl]-2,5-diphenyltetrazolium bromide (MTT) dye reduction test at 0 h (prior to the addition of the test compound) and 72 hours after the addition of test compound. Absorbance was read on a Fluostar Optima (BMG Labtech, Germany) at a wave length of 450 nm. Data were analysed using GraphPad Prism and percent inhibition due to the test compound compared to the control was calculated accordingly.

Assay [2] has as its system HCT116. Briefly: In vitro cell proliferation assay (MTT), HCT116. In kind it is cell-based. The following applies: Homo sapiens, HCT-116, 72 hours. As to the method: as §1, §2
The test system of assay [3] is Rajii. Briefly: In vitro cell proliferation assay (MTT), Rajii. The assay is classed as cell-based. The following applies: 72 hours. Here is the method:
as §1, §2

Assay [4] concerns Daudi. Briefly: In vitro cell proliferation assay (MTT), Daudi. The assay is classed as cell-based. The following applies: Homo sapiens, 72 hours. Here is the method:
as §1, §2

For assay [5], the target named is T1, Glutaminase(Brain) (Mus musculus, UniProt D3Z7P3).
T1 sequence (D3Z7P3 55-674): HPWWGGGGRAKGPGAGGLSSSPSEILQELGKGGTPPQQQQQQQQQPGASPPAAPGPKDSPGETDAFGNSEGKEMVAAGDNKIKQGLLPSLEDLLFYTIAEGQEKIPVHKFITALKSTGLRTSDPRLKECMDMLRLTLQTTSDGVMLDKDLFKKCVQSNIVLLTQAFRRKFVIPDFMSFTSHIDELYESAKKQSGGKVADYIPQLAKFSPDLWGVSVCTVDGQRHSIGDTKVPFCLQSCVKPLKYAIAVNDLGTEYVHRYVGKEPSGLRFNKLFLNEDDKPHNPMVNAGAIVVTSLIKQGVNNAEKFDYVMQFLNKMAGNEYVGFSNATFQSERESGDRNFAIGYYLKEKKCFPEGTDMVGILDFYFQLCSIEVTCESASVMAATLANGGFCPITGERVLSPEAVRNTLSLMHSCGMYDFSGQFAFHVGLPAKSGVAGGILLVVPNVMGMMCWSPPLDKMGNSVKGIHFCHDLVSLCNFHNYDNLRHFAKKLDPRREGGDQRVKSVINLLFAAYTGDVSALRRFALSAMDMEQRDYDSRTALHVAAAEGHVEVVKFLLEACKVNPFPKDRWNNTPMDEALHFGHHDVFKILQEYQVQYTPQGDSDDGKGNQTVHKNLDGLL
In words: Glutaminase enzyme activity using glutaminase enzyme from mice brain/kidney homogenate (Nessler's reagent, ammonia). In kind it is biochemical. As to the method:
Assay 3: Determination of Glutaminase Enzyme Activity Using Glutaminase Enzyme from Mice Brain/Kidney
Step 1: Preparation of Tissue Homogenates:
Male Balb/c mice were administered 0.28 M ammonium chloride in drinking water for 7 days. The animals were sacrificed and brain/kidney organs collected on dry ice. […] The tissue was homogenized and supernatants were stored at −80° C. until the enzyme assay was performed.
Aim: Compounds were assessed for their ability to inhibit the enzymatic activity of L-glutaminase present in mice brain/kidney homogenate.
Protocol: The assay was performed using a colorimetric method using Nessler's Reagent by quantifying the amount of ammonia formed as a by product during the enzymatic conversion of L-glutamine to glutamate. In the routine assay, 16 μl of tissue homogenate is added to 33 μl of Tris-Hcl phosphate buffer (pH 8) along with 1 μl of DMSO/test compound containing the desired final concentration and vortexed briefly. 50 μl of 20 mM L-glutamine Tris buffer is added to start the reaction and incubated for 15 minutes at 37° C. The ammonia formed is detected by adding 20 μl of reaction mixture to cold water in a 96 well plate followed by 20 μl of Nessler's reagent. The colour developed is measured at 450 nm. Data Analysis: Activity of the test compound is reported as % inhibition and the data is analyzed using Graphpad Prism (Graphpad software; San Diego Calif.) for IC50 determination.

Regarding `O=C(Cc1cccc(OC(F)(F)F)c1)Nc1ccc(N2CCC(c3nnc(NC(=O)Cc4ccccn4)s3)CC2)nn1` [Example-8, 2-(pyridin-2-yl)-N-(5-(1-(6-(2-(3-(trifluoromethoxy)phenyl)acetamido)pyridazin-3-yl)piperidin-4-yl)-1,3,4-thiadiazol-2-yl)acetamide], the GI50 in assay [1] was 0.1 to 0.25 µM; in assay [2], 0.25 to 0.5 µM; in assay [3], under 0.1 µM; in assay [4], under 0.1 µM. Further, in assay [5] (read-out: Glutaminase(Brain) activity % inhibition 0.1 μM), the inhibition at 0.1 µM was in the range of 75 to 100%. Also, the inhibition at 1 µM in assay [5] (read-out: Glutaminase(Brain) activity % inhibition @1 μM) was 75 to 100%.
